In US20240287138A1, “CYCLIC PEPTIDES FOR INHIBITING TNF RECEPTOR 1 ACTIVITY” (Merck Sharp & Dohme LLC, priority 2023, published 2024):
Numbered stars: 1 amine (or outer) side, 2 acyl side, 3 side chain; on linkers, the order of the positions; unused ones are H or OH. Bridge positions count the residues as written; N and C are the ends. Square brackets hold non-standard residues; d marks the D form. Peptide text beside a SMILES is read from it. Trp(βS-Me,7-OMe) = COc1cccc2c([C@H](C)[C@H](N)C(=O)O)c[nH]c12; Phe(3R-OH) = O=C([C@@H](N[*:1])[C@H](O[*:3])c1ccccc1)[*:2]; cBu(1-CO,cis-3-CH2NH) = O=C([C@H]1C[C@@H](CN[*:1])C1)[*:2]; Trp(7-Cl) = N[C@@H](Cc1c[nH]c2c(Cl)cccc12)C(=O)O; Phe(4-CONH2) = NC(=O)c1ccc(C[C@H](N)C(=O)O)cc1; Phe(4-COOH) = N[C@@H](Cc1ccc(C(=O)O)cc1)C(=O)O; Trp(7-F) = N[C@@H](Cc1c[nH]c2c(F)cccc12)C(=O)O; Trp(7-aza) = N[C@@H](Cc1c[nH]c2ncccc12)C(=O)O; Ala(4-thiazolyl) = N[C@@H](Cc1cscn1)C(=O)O; Pip(5R-OH) = O=C(O)[C@@H]1CC[C@@H](O)CN1; X13 = O=C([C@H]1CC[C@@H](N[*:1])C1)[*:2]; X4 = O=C([C@H]1C=C[C@@H](N[*:1])C1)[*:2]; X1 = O=C([C@@H]1CC[C@H](N[*:1])C1)[*:2]; dPro(4,4-F2) = O=C(O)[C@H]1CC(F)(F)CN1; d(cisHyp) = O=C(O)[C@H]1C[C@@H](O)CN1; Pip(4-aza) = O=C(O)[C@@H]1CNCCN1; hPhe = N[C@@H](CCc1ccccc1)C(=O)O; 4Pal = N[C@@H](Cc1ccncc1)C(=O)O; NMeE = CN[C@@H](CCC(=O)O)C(=O)O; dHyp = O=C(O)[C@H]1C[C@H](O)CN1; Cit = NC(=O)NCCC[C@H](N)C(=O)O; αMeS = C[C@](N)(CO)C(=O)O; NMeA = CN[C@@H](C)C(=O)O; Nle = CCCC[C@H](N)C(=O)O; Sar = CNCC(=O)O

What follows are molecules tested against T1, TNFα-induced NF-κB signal transduction pathway (TNFR1 signaling) in THP-1 cells (Homo sapiens, UniProt P19438) (assay: THP-1 Lucia NF-κB reporter cell assay, inhibition of TNFα-induced NF-κB signaling). Details: THP-1 NF-κB Lucia reporter cells, 10 ng/mL TNFα, 16-18 h, secreted luciferase; read-out: THP-1 IC50.
T1 sequence (P19438 30-455): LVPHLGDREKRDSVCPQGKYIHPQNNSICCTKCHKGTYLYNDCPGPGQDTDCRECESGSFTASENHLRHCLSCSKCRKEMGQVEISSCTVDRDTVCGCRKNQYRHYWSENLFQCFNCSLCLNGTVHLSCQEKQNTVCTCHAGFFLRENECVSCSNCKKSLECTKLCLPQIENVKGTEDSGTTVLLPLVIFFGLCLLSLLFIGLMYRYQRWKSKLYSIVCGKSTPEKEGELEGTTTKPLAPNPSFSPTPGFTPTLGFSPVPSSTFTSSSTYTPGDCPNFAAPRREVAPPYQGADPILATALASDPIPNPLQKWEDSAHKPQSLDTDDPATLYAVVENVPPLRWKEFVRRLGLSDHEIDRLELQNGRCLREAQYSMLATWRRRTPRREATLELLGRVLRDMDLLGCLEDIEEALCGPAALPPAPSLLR
Assay type: cell-based
In short: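 THP-1 Lucia NF-κB cells, 20k/well, no selection antibiotics; peptide pre-inc 1 h 37 °C; + recombinant human TNFα 10 ng/mL final; o.n.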
`CCCC[C@@H]1NC(=O)[C@@H]2CC[C@@H](C2)NC(=O)[C@H]([C@@H](C)c2c[nH]c3c(OC)cccc23)NC(=O)CN(C)C(=O)[C@H](Cc2ccc(C(=O)O)cc2)NC(=O)[C@H](Cc2ccc(C(N)=O)cc2)NC(=O)[C@](C)(CO)NC(=O)[C@H](Cc2c[nH]c3c(Cl)cccc23)NC(=O)[C@H](Cc2ccc(C(=O)O)cc2)NC(=O)[C@H](CC(N)=O)NC(=O)[C@H]2C[C@H](O)CN2C(=O)[C@H](Cc2c[nH]c3ccccc23)NC(=O)[C@@H]2CC[C@@H](O)CN2C(=O)[C@H](Cc2ccncc2)NC1=O` [SEQ ID NO. 247] (cyclo([4Pal][Pip(5R-OH)]W[dHyp]N[Phe(4-COOH)][Trp(7-Cl)][αMeS][Phe(4-CONH2)][Phe(4-COOH)][Sar][Trp(βS-Me,7-OMe)][X1][Nle])) gave an IC50 of 0.5 nM. For `C[C@H]1C(=O)N[C@@H](CC(N)=O)C(=O)N[C@@H](Cc2ccncc2)C(=O)N[C@@H](Cc2c[nH]c3ccccc23)C(=O)N[C@@](C)(CO)C(=O)N[C@@H](Cc2ccc(C(=O)O)cc2)C(=O)N[C@@H](Cc2ccc(O)cc2)C(=O)N(C)CC(=O)N[C@@H](Cc2c[nH]c3ccccc23)C(=O)N[C@@H]2C=C[C@@H](C2)C(=O)N[C@@H](CCc2ccccc2)C(=O)N[C@@H](Cc2ccncc2)C(=O)N[C@@H](CO)C(=O)N[C@@H](Cc2c[nH]c3ccccc23)C(=O)N1C` [SEQ ID NO. 248] (cyclo([4Pal]SW[NMeA]N[4Pal]W[αMeS][Phe(4-COOH)]Y[Sar]W[X4][hPhe])), the IC50 was 10.6 nM. `CCCC[C@@H]1NC(=O)CSC[C@@H](C(N)=O)NC(=O)[C@H]([C@@H](C)c2c[nH]c3c(OC)cccc23)NC(=O)CN(C)C(=O)[C@H](Cc2ccc(O)cc2)NC(=O)[C@H](Cc2ccc(C(=O)O)cc2)NC(=O)[C@](C)(CO)NC(=O)[C@H](Cc2c[nH]c3c(Cl)cccc23)NC(=O)[C@H](Cc2ccncc2)NC(=O)[C@H](CC(N)=O)NC(=O)[C@H](CCC(=O)O)N(C)C(=O)[C@H](Cc2c[nH]c3ncccc23)NC(=O)[C@H](Cc2cscn2)NC(=O)[C@H](Cc2ccncc2)NC1=O` [SEQ ID NO. 253] ({CH2CO}-[Nle][4Pal][Ala(4-thiazolyl)][Trp(7-aza)][NMeE]N[4Pal][Trp(7-Cl)][αMeS][Phe(4-COOH)]Y[Sar][Trp(βS-Me,7-OMe)]C-NH2; thioether N-14) was tested, and the IC50 was 4.4 nM. `CN1CC(=O)N[C@@H](Cc2c[nH]c3ccccc23)C(=O)N[C@H](C(N)=O)CSCC(=O)N[C@@H](CCCCN)C(=O)N[C@@H](Cc2ccc(O)cc2)C(=O)N[C@@H](CO)C(=O)N[C@@H](Cc2c[nH]c3ccccc23)C(=O)N2CCC[C@@H]2C(=O)N[C@@H](CCCNC(N)=O)C(=O)N[C@@H](Cc2ccncc2)C(=O)N[C@@H](Cc2c[nH]c3ccccc23)C(=O)N[C@@](C)(CO)C(=O)N[C@@H](Cc2ccc(C(=O)O)cc2)C(=O)N[C@@H](Cc2ccc(O)cc2)C1=O` [SEQ ID NO. 256] ({CH2CO}-KYSW[dP][Cit][4Pal]W[αMeS][Phe(4-COOH)]Y[Sar]WC-NH2; thioether N-14) showed an IC50 of 6.1 nM. Molecule `CCCC[C@@H]1NC(=O)CSC[C@@H](C(N)=O)NC(=O)[C@H]([C@@H](C)c2c[nH]c3c(OC)cccc23)NC(=O)CN(C)C(=O)[C@H](Cc2ccc(O)cc2)NC(=O)[C@H](Cc2ccc(C(=O)O)cc2)NC(=O)[C@](C)(CO)NC(=O)[C@H](Cc2c[nH]c3c(Cl)cccc23)NC(=O)[C@H](Cc2ccncc2)NC(=O)[C@H](CC(N)=O)NC(=O)[C@H](CCC(=O)O)N(C)C(=O)[C@H](Cc2c[nH]c3ncccc23)NC(=O)[C@H](CO)NC(=O)[C@H]([C@H](O)c2ccccc2)NC1=O` [SEQ ID NO. 259] ({CH2CO}-[Nle][Phe(3R-OH)]S[Trp(7-aza)][NMeE]N[4Pal][Trp(7-Cl)][αMeS][Phe(4-COOH)]Y[Sar][Trp(βS-Me,7-OMe)]C-NH2; thioether N-14) has an IC50 of 1.9 nM. Work on `C[C@H]1C(=O)N[C@@H](CC(N)=O)C(=O)N[C@@H](Cc2ccncc2)C(=O)N[C@@H](Cc2c[nH]c3ccccc23)C(=O)N[C@@](C)(CO)C(=O)N[C@@H](Cc2ccc(C(=O)O)cc2)C(=O)N[C@@H](CCCNC(=N)N)C(=O)N(C)CC(=O)N[C@@H](Cc2c[nH]c3ccccc23)C(=O)N[C@H](C(N)=O)CSCC(=O)N[C@@H](CCc2ccccc2)C(=O)N[C@@H](Cc2ccc(O)cc2)C(=O)N[C@@H](CO)C(=O)N[C@@H](Cc2c[nH]c3ccccc23)C(=O)N1C` [SEQ ID NO. 260] ({CH2CO}-[hPhe]YSW[NMeA]N[4Pal]W[αMeS][Phe(4-COOH)]R[Sar]WC-NH2; thioether N-14) yielded an IC50 of 50.1 nM. For `CCCC[C@@H]1NC(=O)CSC[C@@H](C(N)=O)NC(=O)[C@H]([C@@H](C)c2c[nH]c3c(OC)cccc23)NC(=O)CN(C)C(=O)[C@H](Cc2ccc(O)cc2)NC(=O)[C@H](Cc2ccc(C(=O)O)cc2)NC(=O)[C@](C)(CO)NC(=O)[C@H](Cc2c[nH]c3c(Cl)cccc23)NC(=O)[C@H](Cc2ccncc2)NC(=O)[C@H](CC(N)=O)NC(=O)[C@H]2C[C@@H](O)CN2C(=O)[C@H](Cc2c[nH]c3ncccc23)NC(=O)[C@@H]2CNCCN2C(=O)[C@H](Cc2ccncc2)NC1=O` [SEQ ID NO. 261] ({CH2CO}-[Nle][4Pal][Pip(4-aza)][Trp(7-aza)][d(cisHyp)]N[4Pal][Trp(7-Cl)][αMeS][Phe(4-COOH)]Y[Sar][Trp(βS-Me,7-OMe)]C-NH2; thioether N-14), the IC50 was 2.7 nM. `CCCC[C@@H]1NC(=O)[C@@H]2CC[C@@H](C2)NC(=O)[C@H]([C@@H](C)c2c[nH]c3c(OC)cccc23)NC(=O)CN(C)C(=O)[C@H](Cc2ccc(O)cc2)NC(=O)[C@H](Cc2ccc(C(=O)O)cc2)NC(=O)[C@](C)(CO)NC(=O)[C@H](Cc2c[nH]c3c(Cl)cccc23)NC(=O)[C@H](Cc2ccncc2)NC(=O)[C@H](CC(N)=O)NC(=O)[C@H](CCC(=O)O)N(C)C(=O)[C@H](Cc2c[nH]c3c(Cl)cccc23)NC(=O)[C@@H]2CNCCN2C(=O)[C@H](Cc2ccncc2)NC1=O` [SEQ ID NO. 262] (cyclo([4Pal][Trp(7-Cl)][αMeS][Phe(4-COOH)]Y[Sar][Trp(βS-Me,7-OMe)][X1][Nle][4Pal][Pip(4-aza)][Trp(7-Cl)][NMeE]N)) gave an IC50 of 1.2 nM. `C[C@H]1C(=O)N[C@@H](CC(N)=O)C(=O)N[C@@H](Cc2ccncc2)C(=O)N[C@@H](Cc2c[nH]c3ccccc23)C(=O)N[C@@](C)(CO)C(=O)N[C@@H](Cc2ccc(C(=O)O)cc2)C(=O)N[C@@H](Cc2ccc(O)cc2)C(=O)N(C)CC(=O)N[C@@H](Cc2c[nH]c3ccccc23)C(=O)N[C@H](C(N)=O)CSCC(=O)N[C@@H](CCc2ccccc2)C(=O)N[C@@H](Cc2ccc(O)cc2)C(=O)N[C@@H](CO)C(=O)N[C@@H](Cc2c[nH]c3c(F)cccc23)C(=O)N1C` [SEQ ID NO. 263] ({CH2CO}-[hPhe]YS[Trp(7-F)][NMeA]N[4Pal]W[αMeS][Phe(4-COOH)]Y[Sar]WC-NH2; thioether N-14) gave an IC50 of 4.7 nM. `CCCC[C@@H]1NC(=O)[C@@H]2CC[C@@H](C2)NC(=O)[C@H]([C@@H](C)c2c[nH]c3c(OC)cccc23)NC(=O)CN(C)C(=O)[C@H](Cc2ccc(O)cc2)NC(=O)[C@H](Cc2ccc(C(=O)O)cc2)NC(=O)[C@](C)(CO)NC(=O)[C@H](Cc2c[nH]c3c(Cl)cccc23)NC(=O)[C@H](Cc2ccncc2)NC(=O)[C@H](CC(N)=O)NC(=O)[C@H]2CC(F)(F)CN2C(=O)[C@H](Cc2c[nH]c3ccccc23)NC(=O)[C@@H]2CNCCN2C(=O)[C@H](Cc2ccncc2)NC1=O` [SEQ ID NO. 266] (cyclo([4Pal][Trp(7-Cl)][αMeS][Phe(4-COOH)]Y[Sar][Trp(βS-Me,7-OMe)][X1][Nle][4Pal][Pip(4-aza)]W[dPro(4,4-F2)]N)) gave an IC50 of 0.9 nM. Work on `CCCC[C@@H]1NC(=O)[C@H]2CC[C@H](C2)NC(=O)[C@H]([C@@H](C)c2c[nH]c3c(OC)cccc23)NC(=O)CN(C)C(=O)[C@H](Cc2ccc(O)cc2)NC(=O)[C@H](Cc2ccc(C(N)=O)cc2)NC(=O)[C@](C)(CO)NC(=O)[C@H](Cc2c[nH]c3c(Cl)cccc23)NC(=O)[C@H](Cc2ccc(C(=O)O)cc2)NC(=O)[C@H](CC(N)=O)NC(=O)[C@H](CCC(=O)O)N(C)C(=O)[C@H](Cc2c[nH]c3ccccc23)NC(=O)[C@@H]2CC[C@@H](O)CN2C(=O)[C@H](Cc2ccncc2)NC1=O` [SEQ ID NO. 267] (cyclo([4Pal][Pip(5R-OH)]W[NMeE]N[Phe(4-COOH)][Trp(7-Cl)][αMeS][Phe(4-CONH2)]Y[Sar][Trp(βS-Me,7-OMe)][X13][Nle])) yielded an IC50 of 1.7 nM. Molecule `CCCC[C@@H]1NC(=O)[C@H]2C[C@@H](CNC(=O)[C@H]([C@@H](C)c3c[nH]c4c(OC)cccc34)NC(=O)CN(C)C(=O)[C@H](Cc3ccc(O)cc3)NC(=O)[C@H](Cc3ccc(C(=O)O)cc3)NC(=O)[C@](C)(CO)NC(=O)[C@H](Cc3c[nH]c4c(Cl)cccc34)NC(=O)[C@H](Cc3ccncc3)NC(=O)[C@H](CC(N)=O)NC(=O)[C@H](CCC(=O)O)N(C)C(=O)[C@H](Cc3c[nH]c4ccccc34)NC(=O)[C@@H]3CNCCN3C(=O)[C@H](Cc3ccncc3)NC1=O)C2` [SEQ ID NO. 268] (cyclo([4Pal][Trp(7-Cl)][αMeS][Phe(4-COOH)]Y[Sar][Trp(βS-Me,7-OMe)][cBu(1-CO,cis-3-CH2NH)][Nle][4Pal][Pip(4-aza)]W[NMeE]N)) has an IC50 of 2 nM.
